The source of these data is publication PMC7887271, “Fast acting allosteric phosphofructokinase inhibitors block trypanosome glycolysis and cure acute African trypanosomiasis in mice” (Nature Communications, 2021).

Entries after “also recorded” stand apart in the source; their conditions may differ.

One series relates to T. b. brucei Lister 427. As to the kind of experiment: Mouse model of stage 1 HAT. The series is classed as in vivo, T. b. brucei in female CD-1 mice. As for the experimental part: T. b. brucei Lister 427 infection is cured by 1-day dosing. […] These parasites have a doubling time of ~6 h and infection with 1 × 10^5 parasites usually requires euthanasia of mice within 4–5 days of infection in the absence of drug treatment. Drug efficacy is determined by taking regular blood samples from infected mice and checking microscopically for parasitaemia. In this model of acute infection a single surviving parasite should proliferate to reach detectable levels in ~5 days and a 30-day period of no parasite detection is considered as cure.
For the mouse model of stage 1 HAT T. b. brucei Lister 427 parasites (1 × 10^5) were injected into a single donor female CD-1 mouse (University of Edinburgh; 6–8 weeks old) intraperitoneally in D-PBS containing 10 mM glucose. Parasites for subsequent stage 1 HAT infection were obtained from whole blood via cardiac puncture, under gaseous isoflurane anaesthesia. Parasites (1 × 10^3) harvested from the donor mouse were then injected into the peritoneum of female CD-1 mice (University of Edinburgh; 6–8 weeks old) in D-PBS containing 10 mM glucose. One day after infection, animals were either left untreated (n = 3) or dosed orally by gavage (n = 5) with CTCB compound in Cremophor EL: EtOH: D-PBS (30:10:60 v/v; Supplementary Methods 6.3).
T. b. brucei Lister 427 parasites (1 x 10^5) were injected into a single donor female CD-1 mouse (University of Edinburgh; 6-8 weeks old) intraperitoneally in D-PBS containing 10 mM glucose. Parasites for subsequent Stage 1 HAT infection were obtained from whole blood via cardiac puncture, under gaseous isoflurane anaesthesia as described above. Parasites (1 x 10^3) harvested from the donor mouse were then injected into the peritoneum of female CD-1 mice (University of Edinburgh; 6-8 weeks old) in D-PBS containing 10mM glucose. One day after infection, animals were either left untreated (n=3) or dosed orally by gavage (n=5) with CTCB compound in Cremophor EL: EtOH : D-PBS (30:10:60 v/v). The veterinary trypanocidal drug pentamidine isethionate (2.5 mg/kg for 4 consecutive days after infection) was administered intraperitoneally as control (n=3) for parasite elimination. Mice were monitored daily for parasitaemia day 1 post-infection onwards. Trypanosomes were quantified in blood samples from the tail vein by microscopy as previously described (12). Animals were sacrificed on the day that parasites were first detected in blood samples. (Supplementary Figure 11)

Series [1] is described as follows: Tolerance studies and plasma levels after multiple oral dosing. The series is classed as in vivo. Conditions: for tolerance of high doses: mice, oral; for Experimental plasma concentration measured @2hr after final dose: 2 h intervals. As for the experimental part: All efficacy studies were carried out using CD-1 mice in accordance with the United Kingdom Animals (Scientific Procedures) Act (1986) under Home Office regulations. Studies were performed in SPF facilities at the University of Edinburgh under licence PPL 70/8102 and at the University of Glasgow under PPL 60/4442. The experiments were approved by the local ethics committees of the respective universities. Dosing regimens used in efficacy studies were first tested for tolerance in female CD-1 mice (University of Edinburgh; 6–8 weeks old). Animals were dosed orally by gavage with CTCB compounds following the dosing regimen for each individual experiment (n = 5; Supplementary Methods 6.2).
Dosing regimens used in efficacy studies were first tested for tolerance in female CD-1 mice (University of Edinburgh; 6-8 weeks old). Animals were dosed orally by gavage with CTCB compounds following the dosing regimen for each individual experiment (n=5) as indicated. Compounds were administered in a mixture containing Cremophor EL: EtOH: D-PBS (30:10:60 v/v). Animals were monitored for up to 8 hours post-dosing. On the final day of dosing, 2 hours after the final dose, whole blood was harvested from three mice via cardiac puncture, under gaseous isoflurane anaesthesia, to obtain plasma for analyses. The remaining two mice were monitored for several days post dosing. To avoid coagulation, 100 μl of 2% sodium citrate was utilised in the syringe during the procedure and blood samples subsequently transferred to heparin coated microtubules. Blood samples were centrifuged at 800 x g for 10 minutes at room temperature. The supernatant containing the plasma was transferred to a fresh tube for determination of compound levels and further PK analysis.

Setting [2] is: three oral 50 mg kg^−1 doses 2 h apart daily over 2 days, n = 5.

Turning to `CN(C)CCn1ccc2c(ccn2Cc2ccc(F)c(Br)c2)c1=O` [CTCB-508, 1-[(3-Bromo-4-fluorophenyl)methyl]-5-[2-(dimethylamino)ethyl] pyrrolo[3,2-c]pyridin-4-one], in the series on T. b. brucei Lister 427 (setting [2]), the outcome of treatment is on record as “either complete clearance or a significant increase in survival”. In series [1], the “tolerance of high doses” value was “well tolerated”.

As to `CN(C)CCn1ccc2c(ccn2Cc2ccc(Cl)c(Br)c2)c1=O` [CTCB-470, 1-[(3-Bromo-4-chlorophenyl)methyl]-5-[2-(dimethylamino)ethyl] pyrrolo[3,2-c]pyridin-4-one], the outcome of treatment in the series with T. b. brucei Lister 427 (setting [2]) was “either complete clearance or a significant increase in survival”. Also, the “tolerance of high doses” value in series [1] was “well tolerated”.

Turning to `CN(C)CCn1ccc2c(ccn2Cc2ccc(Cl)c(Cl)c2)c1=O` [CTCB-405, 1-[(3,4-Dichlorophenyl)methyl]-5-[2-(dimethylamino)ethyl] pyrrolo[3,2-c]pyridin-4-one], in the series with T. b. brucei Lister 427 (single oral doses of 50 mg kg^−1 over four consecutive days), the “delay of onset of parasitaemia” value is recorded as “up to 12 days”. For the same compound, the outcome of treatment is given as “parasite clearance; also recorded: complete cure; also recorded: either complete clearance or a significant increase in survival” in the series on T. b. brucei Lister 427 (setting [2]); “parasites are undetectable; also recorded: no recurrence of parasitaemia 30 days post infection” in the series on T. b. brucei Lister 427 (three oral doses of 100 mg kg^−1 2 h apart on a single day, n = 5); “prolongs survival but does not improve efficacy” in the series with T. b. brucei Lister 427 (two daily oral doses at 25 mg/kg delivered 4 hours apart, n=5). For the same compound, the “infected mice with complete cure” value in the series with T. b. brucei Lister 427 (three oral doses of 100 mg kg^−1 at 2 h intervals on 1 day, cure = no parasitaemia for >30 days) is recorded as 5/5. For the same compound, the results for the “Experimental plasma concentration measured @2hr after final dose” value in series [1] (3 x 50 mg/kg oral) and in series [1] (3 x 100 mg/kg oral) were 6.8 ± 2.1 µM and 9.8 ± 3.1 µM, respectively. For the same compound, the “tolerance of high doses” value in series [1] is recorded as “well tolerated”. For the same compound, in series [1] (three doses at 100 mg kg^−1 given on two consecutive days), the plasma levels came out at 9.8 µM. The autopsied livers result in series [1] (up to 300 mg kg^−1 per day) is recorded as “appeared normal”. In series [1] (up to 300 mg kg^−1 per day, cumulative dosing tolerance studies), the apparent toxicity result was “no apparent toxicity”.
